Laboratory results published in US4087432A, “1H-imidazo(4,5-b)pyridine compounds” (Eli Lilly and Company, priority 1975, dated 1978).

Experiments:
Conditions in all cases: 8 lbs/acre
[1] = tested on: Corn; experiment: Postemergent injury rating, corn; type: in vivo; parameters: key: injury rating scale, 4 = death
Description: (§1) Various of the compounds to be employed as active agent in accordance with the present invention were evaluated for preemergent application to various species of plants. In this evaluation, a soil was prepared consisting of one part masonry sand and one part shredded top soil blended together in a cement mixer. One gallon of this soil was placed in a 25 × 35 cm. galvanized flat and was patted down with a bench brush until level. A three-row marker was used to make 21/2 cm. deep furrows in approximately two-fifths of the flat. Crop seeds consisting of four kernels of corn, five cotton seeds and five soybean seeds were placed in these furrows. A four-row template was then placed on the remaining soil and the indicated approximate numbers of each of the following seeds were planted, one species to each section: foxtail (millet), 80-100 seeds; velvetleaf (40-50 seeds); rough pigweed (150-250 seeds); and large crabgrass (100-150 seeds).
(§2) Sufficient soil was added to cover the entire flat. Thus, the weed seeds were covered to a depth of about 6 mm. and the crop seeds were covered to a depth of about 3 cm.
(§3) In assaying the effect of the composition as preemergent herbicides, a flat prepared as above, taken either on the day of planting or on the next day, was placed in a chamber equipped with a turntable and an air exhaust. The herbicidal composition, either a spray-type emulsion or a wettable powder, was applied to the flat with a modified DeVilbiss atomizer hooked to an air source. Twelve and one-half milliliters of the composition under test were applied to each flat either on the day of planting or the succeeding day. Injury ratings and observations as to type of injury were made eleven to twelve days after treatment. The injury rating scale used was as follows:
(§4) 4--death When more than one determination was carried out at a given rate, an average value was calculated for the injury rating. Each compound evaluated was formulated as a spray by one of the following procedures. In one method the particular compound was wetted by grinding in a mortar with one part of polyoxyethylene sorbitan monolaurate. Five hundred parts of water were added slowly to the resultant creamy paste to give an aqueous dispersion with a surfactant concentration of 0.2 percent. This dispersion was entirely satisfactory for spray application. In a second procedure the compound was dissolved in one volume of acetone, and the acetone solution was diluted with nineteen volumes of water containing 0.1 percent of polyoxyethylene sorbitan monolaurate.
(§5) Representative compounds of the present invention were evaluated for postemergent application to plants including corn and several weed species. The evaluation was carried out in accordance with the procedures of Examples 49-52 except that the test solutions were applied about 9-12 days after the preparation and seeding of the flats.

[2] = tested on: Crabgrass; experiment: Postemergent injury rating, crabgrass; type: in vivo, large crabgrass; parameters: key: injury rating scale, 4 = death
Description: as §1, §2, §3, §4, §5

[3] = tested on: Pigweed; experiment: Postemergent injury rating, pigweed; type: in vivo, rough pigweed; parameters: key: injury rating scale, 4 = death
Description: as §1, §2, §3, §4, §5

[4] = tested on: Foxtail; experiment: Postemergent injury rating, foxtail; type: in vivo, foxtail (millet); parameters: key: injury rating scale, 4 = death
Description: as §1, §2, §3, §4, §5

[5] = tested on: Velvet Leaf; experiment: Postemergent injury rating, velvetleaf; type: in vivo
Description: as §1, §2, §3, §4, §5

Row | SMILES | Injury Rating, Corn [1] | Injury Rating, Crabgrass [2] | Injury Rating, Pigweed [3] | Injury Rating, Foxtail [4] | Injury Rating, Velvet Leaf [5]
1 | Nc1c(Br)nc2nc(C(F)(F)F)n(O)c2c1Br [5,7-dibromo-6-amino-1-hydroxy-2-(trifluoromethyl)-1H-imidazo(4,5-b)pyridine] | 1 | 3 | 3 | 3 | 2
2 | On1c(C(F)(F)F)nc2nc(Br)c(Cl)c(Br)c21 [5,7-dibromo-6-chloro-1-hydroxy-2-(trifluoromethyl)-1H-imidazo(4,5-b)pyridine] | 1 | 4 | 4 | 4 | 3
